Legend:
[1] = tested on: MLKL translocation in transfected THP-1 cells; test: Flag-MLKL translocation to cell membrane, immunofluorescent staining, confocal microscopy; format: cell-based, human; conditions: transfected THP-1 cells stimulated with compound and TBZ, FIG. 3
Description: A human monocyte cell line THP-1 and a human colon cancer cell line HT-29 were maintained in a 10% FBS-Roswell Park Memorial Institute (RPMI) 1640 medium supplemented with 2 mM L-glutamine, 100 U/ml penicillin, and 100 μg/ml streptomycin at 37° C. under a 5% CO2 condition. The THP-1 cells were differentiated into macrophages in an RPMI 1640 medium containing 500 nM Phorbol 12-myristate 13-acetate (PMA) for 3 hours. Human mixed lineage kinase domain-like protein (MLKL)-flag plasmid (Sino Biological, HG12810-CF) transfection was performed using the electroporation system (Invitrogen) of MicroPorator-mini (Digital Bio).
Cells were seeded on cell culture-treated glass chamber slides. The cells were pretreated with Z-VAD, BV6, and the indicated compound for 1 hour, and then treated with TNF-α and BV6 overnight. Subsequently, the cells were washed with phosphate-buffered saline (PBS) and fixed in 4% paraformaldehyde for 10 minutes. Before incubation for 10 minutes in 0.25% Triton X-100 in PBS, the cells were washed three more times with PBS. The cells were blocked with 5% bovine serum albumin (BSA) in PBS for 30 minutes and stained using an anti-Flag (Sigma, F7425-2MG) antibody. The nuclei were stained with DAPI (Invitrogen, 00-4959-52). Images were captured using a confocal microscope (Olympus, FV1000). […]

MLKL oligomerization = MLKL oligomerization (tetramer and octamer bands) by non-reducing or reducing SDS-PAGE; format: cell-based, human; conditions: cytoplasmic and membrane fractions, necroptosis induced with TBZ, FIG. 2 / FIG. 6A
Description: Cells were pretreated with Z-VAD (invivoGen, tlrl-vad) and a compound for 1 hour, and necroptosis was induced with TNF-α (ATGen, TNF0501) and BV6 (Biovision, B1332-5) for the indicated time. The prepared cells were appropriately treated according to analysis (Z-VAD: carbobenzoxy-valyl-alanyl-aspartyl, TNF-α: tumor necrosis factor-α, BV6: 4,4′-(1,6-hexanediyl)bis[N-methyl-L-alanyl-(2S)-2-cyclohexylglycyl-L-prolyl-β-phenyl-L-phenylalaninamide)
Cells were treated with a drug candidate and then collected using centrifugation at 4° C. and 1,500×g for 5 minutes. A supernatant was centrifuged again at 4° C. and 1,500×g for 5 minutes to remove remaining debris, concentrated at 4° C. and 14,000×g for 30 minutes using Amicon ultra-0.5 centrifugal filter unit 10K (Millipore, UFC501096), and stored. […] The extracted protein concentration was measured using a bicinchoninic acid (BCA) protein assay kit (Thermo Fisher Scientific, 23225). […]
To test whether the tetramer and octamer formation of p-MLKL for pore formation in the cell membrane is inhibited by apomorphine (APO), cells that had been treated with each molecule for the indicated time were separated into cytoplasmic and membrane fractions and analyzed through non-reducing or reducing sodium dodecyl sulfate-polyacrylamide gel electrophoresis (SDS-PAGE), and then investigated with specific antibodies (Experimental Method 1-6). […]

MLKL protein = molecular target: T1, MLKL protein (Homo sapiens, UniProt Q8NB16); test: Surface plasmon resonance (SPR) analysis, binding to MLKL protein; conditions: MLKL immobilized on CM5 chip, Biacore T200, 25° C., 10 mM HEPES pH 7.4
T1 construct: purchased Abcam ab241453
T1 sequence (Q8NB16 1-471): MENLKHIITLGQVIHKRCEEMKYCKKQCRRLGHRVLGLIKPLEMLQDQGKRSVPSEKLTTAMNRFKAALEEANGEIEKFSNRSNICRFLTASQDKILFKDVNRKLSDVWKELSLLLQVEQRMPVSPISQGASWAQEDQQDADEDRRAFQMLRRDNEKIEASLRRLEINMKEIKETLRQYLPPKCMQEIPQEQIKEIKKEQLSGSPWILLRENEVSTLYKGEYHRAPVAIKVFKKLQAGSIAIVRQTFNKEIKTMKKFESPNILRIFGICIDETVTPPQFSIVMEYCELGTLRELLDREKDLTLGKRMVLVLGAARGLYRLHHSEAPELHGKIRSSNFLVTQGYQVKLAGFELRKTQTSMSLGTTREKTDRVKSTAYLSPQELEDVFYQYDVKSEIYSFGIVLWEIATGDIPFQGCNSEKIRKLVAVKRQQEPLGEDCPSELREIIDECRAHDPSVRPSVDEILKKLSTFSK
Description: (§1) The interaction between MLKL and apomorphine (=APO) was detected through surface plasmon resonance (SPR) analysis using Biacore T200 (GE Healthcare). For pH scouting, a buffer consisting of 10 mM sodium acetate (pH 4.0 to 6.0) was used. MLKL protein (Abcam, ab241453), and MLKL N-term (amino acids 1-154) protein that had been purified in a laboratory were immobilized on the surface of a sensor chip CM5 (GE Healthcare) under scouted buffer conditions. To deduce an Rligand value, a coupling process was performed based on the molecular weights of MLKL, MLKL N-term domain (MW ligand), and APO (MW analyte). Oxidized (24 hr, RT incubation) and reduced (+DTT(DL-dithiothreitol)) forms of APO were injected into a running buffer (flow rate: 10 μl/min) consisting of 10 mM HEPES (pH 7.4) at 25° C. A sensorgram was recorded and analyzed in real time using control software provided by the Biacore T200 system itself. Six or more concentrations of APO were used in combination, and each KD value was derived. All run data was calculated using BIAevaluation Software (GE Healthcare).
(§2) SPR analysis was used to analyze the interaction pattern between APO and the MLKL protein (Experimental Method 1-10). […] Here, the analysis was performed by binding MLKL and the MLKL N-term domain protein immobilized on a CM5 chip with APO having six concentrations.

[2] = molecular target: T2, MLKL N-term domain (amino acids 1-154) (Homo sapiens, UniProt Q8NB16); test: Surface plasmon resonance (SPR) analysis, binding to MLKL N-term domain; conditions: MLKL N-term domain immobilized on CM5 chip, Biacore T200, 25° C., 10 mM HEPES pH 7.4
T2 construct: MLKL N-term (amino acids 1-154) protein that had been purified in a laboratory; made in house
T2 sequence (Q8NB16 1-154): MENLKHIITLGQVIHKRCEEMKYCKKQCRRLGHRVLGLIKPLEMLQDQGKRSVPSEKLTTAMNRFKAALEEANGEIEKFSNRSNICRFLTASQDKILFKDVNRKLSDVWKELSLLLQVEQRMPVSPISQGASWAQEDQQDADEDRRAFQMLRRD
Description: as §1, §2

SMILES | distribution of Flag-MLKL signals [1] | intensities of the tetramer and octamer bands of MLKL (MLKL oligomerization) | Kd (MLKL protein) | Kd [2]
CN1C(=O)C(Cc2c[nH]c3ccccc23)NC1=S (stereo not shown) [NEC-1, necrostatin-1] | mostly distributed in the cytoplasm |  |  | 
CN1CCc2cccc3c2[C@H]1Cc1ccc(O)c(O)c1-3 [reduced APO] |  | no change | 0.244 µM | 1140 µM

— patent US20250000855A1, “USE OF APOMORPHINE AS THERAPEUTIC AGENT FOR NECROPTOSIS-RELATED DISEASES” (INDUSTRY-ACADEMIC COOPERATION FOUNDATION, YONSEI UNIVERSITY, priority 2021, published 2025)
